In patent publication US20240384268A1, “Oligonucleotides” (Hudson Institute of Medical Research, priority 2021, published 2024):
In the oligonucleotide strings, read from the 5' end, every base follows the letter of its sugar. An asterisk marks phosphorothioate; unmarked linkages are phosphodiester. Other units and linkages are bracketed, terminal groups are in braces. A string of capitals states the bases alone. d = 2'-deoxy (DNA); m = 2'-O-methyl

target: T1, human TLR9 (Homo sapiens, UniProt Q9NR96); experiment: HEK-TLR9 NF-κB-luciferase reporter, ODN2006 stimulation; format: cell-based; details: 3mer 2'OMe ASO at 2 uM; HEK-TLR9; value relative to Ligand only = 1.000, NT = 0.000
T1 construct: HA; host or cells: 293XL-hTLR9-HA (HEK293)
T1 sequence (Q9NR96 26-1032): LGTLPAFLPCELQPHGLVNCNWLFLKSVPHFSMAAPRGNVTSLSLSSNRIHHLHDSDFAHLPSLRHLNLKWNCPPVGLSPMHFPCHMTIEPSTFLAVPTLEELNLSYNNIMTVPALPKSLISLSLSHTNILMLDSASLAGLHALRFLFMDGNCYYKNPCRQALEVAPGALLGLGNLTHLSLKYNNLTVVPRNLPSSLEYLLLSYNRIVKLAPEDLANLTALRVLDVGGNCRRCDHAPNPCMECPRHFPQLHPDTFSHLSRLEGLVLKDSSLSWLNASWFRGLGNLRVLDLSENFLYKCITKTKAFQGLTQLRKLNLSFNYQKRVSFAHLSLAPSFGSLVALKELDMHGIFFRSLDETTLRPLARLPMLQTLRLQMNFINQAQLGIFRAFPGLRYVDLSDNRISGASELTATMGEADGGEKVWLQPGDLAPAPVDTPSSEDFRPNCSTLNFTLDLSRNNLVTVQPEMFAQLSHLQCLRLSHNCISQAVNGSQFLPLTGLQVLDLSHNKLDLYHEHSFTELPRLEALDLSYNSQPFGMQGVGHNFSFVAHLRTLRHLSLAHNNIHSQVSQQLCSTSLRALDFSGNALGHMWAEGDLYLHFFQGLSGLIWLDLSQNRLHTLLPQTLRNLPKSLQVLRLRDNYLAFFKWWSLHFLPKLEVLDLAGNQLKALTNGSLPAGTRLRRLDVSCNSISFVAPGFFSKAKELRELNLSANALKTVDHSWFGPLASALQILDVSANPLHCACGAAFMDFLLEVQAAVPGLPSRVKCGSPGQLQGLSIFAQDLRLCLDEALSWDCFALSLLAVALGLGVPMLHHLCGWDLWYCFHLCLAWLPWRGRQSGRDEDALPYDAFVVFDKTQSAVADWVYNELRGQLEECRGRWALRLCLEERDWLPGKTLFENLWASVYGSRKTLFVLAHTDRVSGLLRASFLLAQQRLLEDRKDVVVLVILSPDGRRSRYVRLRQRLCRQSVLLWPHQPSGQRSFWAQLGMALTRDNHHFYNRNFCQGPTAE

| Substance | TLR9 2 uM |
| --- | --- |
| UUU (mU*mU*mU) | 0.936 |
| dA*dA*dA (DNA AAA; listed as DNA, chemistry not fully specified) | 0.845 |
| dA*dA*dC (DNA AAC; listed as DNA, chemistry not fully specified) | 0.931 |
| dA*dA*dG (DNA AAG; listed as DNA, chemistry not fully specified) | 0.870 |
| dA*dC*dA (DNA ACA; listed as RNA, chemistry not fully specified) | 1.042 |
| dA*dG*dA (DNA AGA; listed as DNA, chemistry not fully specified) | 0.848 |
| dA*dG*dC (DNA AGC; listed as DNA, chemistry not fully specified) | 0.749 |
| dC*dA*dA (CAA; listed as DNA, chemistry not fully specified) | 0.917 |
| dC*dA*dC (CAC; listed as RNA, chemistry not fully specified) | 0.830 |
| dC*dC*dA (CCA; listed as DNA, chemistry not fully specified) | 1.014 |
| dC*dC*dC (CCC; listed as DNA, chemistry not fully specified) | 1.069 |
| dC*dC*dG (CCG; listed as DNA, chemistry not fully specified) | 0.936 |
| dC*dG*dA (CGA; listed as DNA, chemistry not fully specified) | 1.061 |
| dG*dC*dC [GCC] | 1.305 |
| dG*dC*dG [GCG] | 1.299 |
| mAmUmC (mA*mU*mC) [AUC, 3-mer 2′OMe PS oligo] | 0.884 |
| mCmUmU (antisense mC*mU*mU) [660-3] | 1.108 |
| mGmAmU (mG*mA*mU) [GAU, 3-mer 2′OMe PS oligo] | 0.700 |
| mGmUmA (GUA; all 2'-O-methyl, backbone not given here; further chemistry not fully specified) [shortMut1-3b] | 1.042 |
| mGmUmC (mG*mU*mC) [GUC, 3-mer 2′OMe PS oligo] | 0.856 |
| mGmUmG (mG*mU*mG) [GUG, 3-mer 2′OMe PS oligo] | 1.374 |
| mGmUmU (mG*mU*mU) [GUU, 3-mer 2′OMe PS oligo] | 1.159 |
| mUmCmA (mU*mC*mA) [UCA, 3-mer 2′OMe PS oligo] | 0.872 |
| mUmCmG (antisense mU*mC*mG) [660-3b] | 0.514 |
| mUmGmA (mU*mG*mA) [UGA, 3-mer 2′OMe PS oligo] | 1.034 |
| mUmGmG (mU*mG*mG) [UGG, 3-mer 2′OMe PS oligo] | 1.137 |
